# Experimental data taken from ChEMBL document CHEMBL4831556, “Discovery of a Novel Potent and Selective Calcium Release-Activated Calcium Channel Inhibitor: 2,6-Difluoro-N-(2'-methyl-3'-(4-methyl-5-oxo-4,5-dihydro-1,3,4-oxadiazol-2-yl)-[1,1'-biphenyl]-4-yl)benzamide. Structure-Activity Relationship and Preclinical Characterization” (J Med Chem, 2021).
# Where “and” joins values, the source holds several entries; their conditions need not be identical. Equal entries are not always repeated.
# How the values were obtained:
# [1] = Toxicity in mouse assessed as maximum tolerated dose; conditions: in vivo
# [2] = Trough concentration in human whole blood at 80 mg, bid; type: ADME, tissue-based; conditions: read-out: Cmin
# [3] = biological target: T1, Cytochrome P450 2A6 (Homo sapiens, UniProt P11509); assay: Inhibition of CYP2A6 in human liver microsomes at 10 uM by LC-MS/MS analysis; type: ADME
# T1 sequence (P11509 whole entry): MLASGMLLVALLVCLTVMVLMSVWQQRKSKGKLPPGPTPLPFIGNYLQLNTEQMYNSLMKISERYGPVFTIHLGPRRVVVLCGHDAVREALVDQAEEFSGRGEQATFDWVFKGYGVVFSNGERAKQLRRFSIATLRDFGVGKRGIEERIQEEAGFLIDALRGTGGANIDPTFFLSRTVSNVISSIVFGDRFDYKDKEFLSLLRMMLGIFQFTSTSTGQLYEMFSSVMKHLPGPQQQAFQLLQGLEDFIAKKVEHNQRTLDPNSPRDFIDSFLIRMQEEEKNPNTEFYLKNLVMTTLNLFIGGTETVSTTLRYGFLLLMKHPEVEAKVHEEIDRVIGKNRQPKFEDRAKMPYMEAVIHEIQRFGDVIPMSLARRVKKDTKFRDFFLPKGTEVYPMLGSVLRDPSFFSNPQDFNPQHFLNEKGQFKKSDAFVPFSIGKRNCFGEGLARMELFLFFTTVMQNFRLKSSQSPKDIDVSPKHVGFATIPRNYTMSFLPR
# [4] = Cmax in CFA-induced rheumatoid arthritis Lewis rat model at 0.3 mg/kg, po administered once daily for 15 days; type: ADME, organism-based; parameters: route oral, dose 0.3 mg/kg, time 15 day; conditions: in vivo
# [5] = Cmax in rat at 60 mg/kg/day after 13 weeks; type: ADME, organism-based; parameters: time 13 weeks, dose 60 mg/kg/day; conditions: in vivo
# [6] = AUClast in BALB/c mouse at 1 mg/kg, iv measured upto 24 hrs by LC-MS/MS analysis; type: ADME, organism-based; parameters: route intravenous, dose 1 mg/kg, time <=24; conditions: in vivo
# [7] = Tmax in BALB/c mouse model of mBSA-induced delayed type hypersensitivity at 1 mg/kg, po administered twice daily for 7 days followed by mBSA challenge and measured after 24 hrs; type: ADME, organism-based; conditions: in vivo, time 8 day
# [8] = AUClast in collagen-induced rheumatoid arthritis DBA/1J mouse model at 3 mg/kg, po administered twice daily for 15 days; type: ADME, organism-based; parameters: route oral, dose 3 mg/kg, time 15 day; conditions: in vivo
# [9] = AUClast in CFA-induced rheumatoid arthritis Lewis rat model at 3 mg/kg, po administered once daily for 15 days; type: ADME, organism-based; parameters: route oral, time 15 day, dose 3 mg/kg; conditions: in vivo
# [10] = Cmax in rat at 60 mg/kg/day after 2 weeks; type: ADME, organism-based; parameters: time 2 weeks, dose 60 mg/kg/day; conditions: in vivo
# [11] = biological target: Cytochrome P450 2E1 (Homo sapiens, UniProt P05181); assay: Inhibition of CYP2E1 in human liver microsomes at 10 uM by LC-MS/MS analysis; type: ADME
# [12] = Volume of distribution at steady state in BALB/c mouse at 1 mg/kg, iv measured upto 24 hrs by LC-MS/MS analysis; type: ADME, organism-based; conditions: in vivo, read-out: Vdss
# [13] = Metabolic stability in mouse liver microsomes preincubated for 5 mins followed by NADPH addition and measured upto 30 mins by LC-MS/MS analysis; type: ADME, Microsome; conditions: 0.5 h, time <=35 min
# [14] = biological target: Tumor necrosis factor (Homo sapiens, UniProt P01375); assay: Inhibition of TNF-alpha in thapsigargin stimulated human whole blood; type: tissue-based
# [15] = Metabolic stability in dog liver microsomes preincubated for 5 mins followed by NADPH addition and measured upto 30 mins by LC-MS/MS analysis; type: ADME, Canis lupus familiaris, Microsome; conditions: 0.5 h, time <=35 min
# [16] = Cmax in CFA-induced rheumatoid arthritis Lewis rat model at 3 mg/kg, po administered once daily for 15 days; type: ADME, organism-based; parameters: route oral, time 15 day, dose 3 mg/kg; conditions: in vivo
# [17] = AUC(0 to t) in rat at 60 mg/kg/day after 2 weeks; type: ADME, organism-based; parameters: dose 60 mg/kg/day, time 2 weeks; conditions: in vivo
# [18] = AUClast in CFA-induced rheumatoid arthritis Lewis rat model at 0.3 mg/kg, po administered once daily for 15 days; type: ADME, organism-based; parameters: route oral, time 15 day, dose 0.3 mg/kg; conditions: in vivo
# [19] = Cmax in human whole blood at 160 mg, qd; type: ADME, tissue-based; parameters: dose 160 mg
# [20] = Apparent permeability across basolateral to apical side in human Caco-2 cells at 5 uM measured upto 120 mins in orbital shaker; type: ADME, cell-based
# [21] = Cmax in BALB/c mouse model of mBSA-induced delayed type hypersensitivity at 3 mg/kg, po administered twice daily for 7 days followed by mBSA challenge and measured after 24 hrs; type: ADME, organism-based; parameters: route oral, time 8 day, dose 3 mg/kg; conditions: in vivo
# [22] = Cmax in Lewis rat at 1 mg/kg, iv measured upto 24 hrs by LC-MS/MS analysis; type: ADME, organism-based; parameters: route intravenous, dose 1 mg/kg, time <=24; conditions: in vivo
# [23] = Cmax in BALB/c mouse at 1 mg/kg, iv measured upto 24 hrs by LC-MS/MS analysis; type: ADME, organism-based; parameters: route intravenous, dose 1 mg/kg, time <=24; conditions: in vivo
# [24] = AUClast in BALB/c mouse model of mBSA-induced delayed type hypersensitivity at 3 mg/kg, po administered twice daily for 7 days followed by mBSA challenge and measured after 24 hrs; type: ADME, organism-based; parameters: route oral, time 8 day, dose 3 mg/kg; conditions: in vivo
# [25] = Toxicity in rat assessed as minimum effective dose; conditions: in vivo
# [26] = AUClast in BALB/c mouse model of mBSA-induced delayed type hypersensitivity at 1 mg/kg, po administered twice daily for 7 days followed by mBSA challenge and measured after 24 hrs; type: ADME, organism-based; parameters: route oral, dose 1 mg/kg, time 8 day; conditions: in vivo
# [27] = Cmax in BALB/c mouse model of mBSA-induced delayed type hypersensitivity at 10 mg/kg, po administered twice daily for 7 days followed by mBSA challenge and measured after 24 hrs; type: ADME, organism-based; parameters: route oral, dose 10 mg/kg, time 8 day; conditions: in vivo
# [28] = Tmax in collagen-induced rheumatoid arthritis DBA/1J mouse model at 3 mg/kg, po administered twice daily for 15 days; type: ADME, organism-based; conditions: in vivo, time 15 day
# [29] = Cmax in human at […] measured on day 14; type: ADME, organism-based; parameters: time 14 day; conditions: in vivo
# [30] = Tmax in collagen-induced rheumatoid arthritis DBA/1J mouse model at 3 mg/kg, po administered twice daily for 15 days in presence of 0.75 mg/kg of methotrexate; type: ADME, organism-based; conditions: in vivo, time 15 day
# [31] = AUC(0 to t) in human at […] measured on day 14; type: ADME, organism-based; parameters: time 14 day; conditions: in vivo
# [32] = Toxicity in human assessed as minimum effective dose
# [33] = Cmax in Lewis rat at 10 mg/kg, po measured upto 24 hrs by LC-MS/MS analysis; type: ADME, organism-based; parameters: route oral, dose 10 mg/kg, time <=24; conditions: in vivo
# [34] = biological target: ORAI1/STIM1 (Homo sapiens, UniProt Q13586+Q96D31); assay: Inhibition of Orai1/STIM1 (unknown origin) expressed in HEK293 cells assessed as reduction in Ca2+-release activated Ca2+ entry current by manual patch clamp based electrophysiological method; type: cell-based
# [35] = Metabolic stability in human liver microsomes preincubated for 5 mins followed by NADPH addition and measured upto 30 mins by LC-MS/MS analysis; type: ADME, Microsome; conditions: 0.5 h, time <=35 min
# [36] = Tmax in BALB/c mouse model of mBSA-induced delayed type hypersensitivity at 3 mg/kg, po administered twice daily for 7 days followed by mBSA challenge and measured after 24 hrs; type: ADME, organism-based; conditions: in vivo, time 8 day
# [37] = AUClast in rat at 1 mg/kg/day; type: ADME, organism-based; parameters: time 0 - last, dose 1 mg/kg/day; conditions: in vivo
# [38] = AUClast in collagen-induced rheumatoid arthritis DBA/1J mouse model at 3 mg/kg, po administered twice daily for 15 days in presence of 0.75 mg/kg of methotrexate; type: ADME, organism-based; parameters: route oral, dose 3 mg/kg, time 15 day; conditions: in vivo
# [39] = Trough concentration in human whole blood at 160 mg, qd; type: ADME, tissue-based; conditions: read-out: Cmin
# [40] = Cmax in rat at 1 mg/kg/day; type: ADME, organism-based; parameters: dose 1 mg/kg/day; conditions: in vivo
# [41] = biological target: Cytochrome P450 3A4 (Homo sapiens, UniProt P08684); assay: Inhibition of CYP3A4 in human liver microsomes at 10 uM by LC-MS/MS analysis; type: ADME
# Sequence of Cytochrome P450 3A4 (P08684 whole entry): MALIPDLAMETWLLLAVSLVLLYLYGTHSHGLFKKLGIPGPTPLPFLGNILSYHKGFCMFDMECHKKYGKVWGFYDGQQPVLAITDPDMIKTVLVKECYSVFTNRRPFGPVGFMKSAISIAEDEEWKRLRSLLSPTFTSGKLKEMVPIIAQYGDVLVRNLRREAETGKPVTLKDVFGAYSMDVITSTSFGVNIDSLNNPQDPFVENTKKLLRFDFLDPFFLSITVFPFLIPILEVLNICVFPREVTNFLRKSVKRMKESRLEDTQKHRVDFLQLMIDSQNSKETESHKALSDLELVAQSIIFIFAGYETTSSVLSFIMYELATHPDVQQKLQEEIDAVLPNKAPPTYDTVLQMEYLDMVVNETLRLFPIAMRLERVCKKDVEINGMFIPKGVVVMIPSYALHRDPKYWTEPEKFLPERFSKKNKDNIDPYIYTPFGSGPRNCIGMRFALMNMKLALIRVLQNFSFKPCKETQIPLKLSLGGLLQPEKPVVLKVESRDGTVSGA
# Sequence of Cytochrome P450 2E1 (P05181 whole entry): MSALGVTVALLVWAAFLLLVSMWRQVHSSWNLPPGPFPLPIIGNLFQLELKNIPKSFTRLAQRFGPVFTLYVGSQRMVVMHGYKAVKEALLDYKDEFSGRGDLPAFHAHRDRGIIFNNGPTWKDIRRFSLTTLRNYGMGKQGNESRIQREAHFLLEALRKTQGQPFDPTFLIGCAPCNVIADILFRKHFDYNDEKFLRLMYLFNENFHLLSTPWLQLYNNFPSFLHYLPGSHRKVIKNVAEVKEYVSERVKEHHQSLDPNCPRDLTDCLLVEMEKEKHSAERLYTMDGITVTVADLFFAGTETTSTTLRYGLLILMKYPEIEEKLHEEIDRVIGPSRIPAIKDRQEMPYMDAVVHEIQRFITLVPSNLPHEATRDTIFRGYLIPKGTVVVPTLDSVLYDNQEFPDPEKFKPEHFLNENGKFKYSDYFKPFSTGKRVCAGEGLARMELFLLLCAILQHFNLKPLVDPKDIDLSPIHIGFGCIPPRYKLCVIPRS
# Sequence of Tumor necrosis factor (P01375 whole entry): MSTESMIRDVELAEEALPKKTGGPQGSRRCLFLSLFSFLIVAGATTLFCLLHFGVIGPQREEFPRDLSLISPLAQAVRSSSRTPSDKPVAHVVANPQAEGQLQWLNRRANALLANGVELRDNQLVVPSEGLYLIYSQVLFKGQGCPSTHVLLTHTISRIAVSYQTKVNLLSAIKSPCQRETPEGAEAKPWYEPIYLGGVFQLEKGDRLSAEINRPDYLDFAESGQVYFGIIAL
# Sequence of ORAI1/STIM1 (Q96D31 whole entry): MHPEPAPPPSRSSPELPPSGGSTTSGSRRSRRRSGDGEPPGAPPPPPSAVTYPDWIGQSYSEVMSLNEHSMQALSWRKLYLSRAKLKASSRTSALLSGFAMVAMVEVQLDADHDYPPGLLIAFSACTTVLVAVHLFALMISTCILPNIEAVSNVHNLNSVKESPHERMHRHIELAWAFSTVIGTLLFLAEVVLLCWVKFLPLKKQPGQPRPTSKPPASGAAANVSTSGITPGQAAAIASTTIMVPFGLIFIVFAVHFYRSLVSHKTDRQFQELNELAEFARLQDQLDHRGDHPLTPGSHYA
# Sequence of ORAI1/STIM1 (Q13586 whole entry): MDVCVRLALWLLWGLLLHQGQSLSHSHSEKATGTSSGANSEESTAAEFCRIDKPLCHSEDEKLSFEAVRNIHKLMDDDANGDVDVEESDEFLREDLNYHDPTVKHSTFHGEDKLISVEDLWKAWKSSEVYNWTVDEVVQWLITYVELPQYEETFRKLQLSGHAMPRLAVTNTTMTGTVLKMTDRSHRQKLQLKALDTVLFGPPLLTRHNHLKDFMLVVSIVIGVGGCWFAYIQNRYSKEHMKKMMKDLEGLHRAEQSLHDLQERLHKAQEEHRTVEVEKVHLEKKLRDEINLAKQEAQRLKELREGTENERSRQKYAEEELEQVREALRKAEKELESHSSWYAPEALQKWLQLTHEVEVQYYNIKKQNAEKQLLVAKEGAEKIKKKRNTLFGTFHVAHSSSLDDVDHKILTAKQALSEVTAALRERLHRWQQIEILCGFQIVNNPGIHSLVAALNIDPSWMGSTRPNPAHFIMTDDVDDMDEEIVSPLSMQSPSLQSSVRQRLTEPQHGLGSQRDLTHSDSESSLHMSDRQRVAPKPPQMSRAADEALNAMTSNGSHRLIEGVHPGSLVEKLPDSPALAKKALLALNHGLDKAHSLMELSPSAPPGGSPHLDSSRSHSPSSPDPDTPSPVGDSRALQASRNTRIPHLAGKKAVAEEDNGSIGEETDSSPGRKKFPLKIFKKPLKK
compound,measurement,setting,value
Cc1c(-c2ccc(NC(=O)c3c(F)cccc3F)cc2)cccc1-c1nn(C)c(=O)o1,MTD,[1],2000 mg/kg
same,concentration,[2],667 nM
same,inhibition (INH),[3],Not Active
same,Cmax,[4],600 nM
same,Cmax,[5],4680 ng/mL
same,AUC(0-t) at 24 h,[6],7.1 µM·h
same,Tmax,[7],2 h
same,AUC(0-t) at 360 h,[8],12 µM·h
same,AUC(0-t) at 360 h,[9],80 µM·h
same,Cmax,[10],5440 ng/mL
same,inhibition (INH),[11],Not Active
same,Vd,[12],2.3 L/kg
same,Stability,[13],Stable
same,IC50,[14],694 nM
same,Stability,[15],Stable
same,Cmax,[16],4.5 µM
same,AUC(0-t) at 336 h,[17],76700 ng·h/mL
same,AUC(0-t) at 360 h,[18],10 µM·h
same,Cmax,[19],1760 nM
same,"Papp B→A at 2 h, 5 µM",[20],6.2 ×10⁻⁶ cm/s
same,Cmax,[21],1600 nM
same,Cmax,[22],4 µM
same,Cmax,[23],4.2 µM
same,AUC(0-t) at 192 h,[24],8.3 µM·h
same,MED,[25],1 mg/kg
same,AUC(0-t) at 192 h,[26],3.1 µM·h
same,Cmax,[27],3.3 µM
same,Tmax,[28],1 h
same,Cmax,[29],530 ng/mL
same,Tmax,[30],2 h
same,AUC(0-t) at 336 h,[31],7050 ng·h/mL
same,MED,[32],80 mg/kg
same,Cmax,[33],20 µM
same,IC50,[34],76 nM
same,Stability,[35],Stable
same,Tmax,[36],2 h
same,AUC(0-t),[37],36 µM·h and 15200 ng·h/mL
same,AUC(0-t) at 360 h,[38],13 µM·h
same,concentration,[39],403 nM
same,Cmax,[40],2 µM and 843 ng/mL
same,inhibition (INH),[41],Not Active
Cc1c(-c2ccc(NC(=O)c3c(F)cccc3Cl)cc2)cccc1-c1nn(C)c(=O)o1,inhibition (INH),[3],Not Active
same,AUC(0-t) at 24 h,[6],4 µM·h
same,inhibition (INH),[11],Not Active
same,Vd,[12],2.3 L/kg
same,Stability,[13],Stable
same,Stability,[15],Stable
same,"Papp B→A at 2 h, 5 µM",[20],4.5 ×10⁻⁶ cm/s
same,Cmax,[22],5 µM
same,Cmax,[23],4.3 µM
same,Cmax,[33],10 µM
same,Stability,[35],Stable
same,inhibition (INH),[41],Not Active
